Test results reported in the NIST ThermoML archive (doi:10.1016/j.fluid.2014.07.032).
Numbers after ± are expanded uncertainties.

How the values were obtained:
[1] = refractive index (Na D-line) (dimensionless); conditions: 298.15 K; 101.33 kPa; Liquid; Standard Abbe refractometry
[2] = Liquid; for mass density: 298.15 K, 101.33 kPa, Vibrating tube method; for Normal boiling temperature: Ebulliometric method (Recirculating still)

Row | Structure (SMILES) | refractive index [1] | mass density [2] | Normal boiling temperature [2]
1 | CCCCC(CC)COC(C)=O (stereo not drawn) [2-ethylhexyl acetate] | 1.4205 ± 0.0007 | 872.25 ± 0.24 kg/m3 | 199.10 ± 0.2 °C
2 | CC(=O)O [acetic acid] | 1.3713 ± 0.0007 | 1049.42 ± 0.08 kg/m3 | 118.1 ± 1 °C
3 | O [water] | 1.3324 ± 0.0007 | – | 100.1 ± 1 °C
